Common to all, as to format: biochemical
In experiment [1] the test system is caspase-3 (procaspase-3 cleavage). Nature of the experiment: Caspase-3 activation reconstituted with HeLa S-100 fractions (Q-ft, Q30, Q100) and purified/recombinant proteins. The source says:
To study the mechanism, HeLa cell S-100 extracts were fractionated using an anion exchange column. […] The first fraction, Q-ft, flew through the column and contained cytochrome c (Liu et al., Cell 86:147 (1996)). The second fraction, Q30, was eluted with 0.3 M NaCl and contained Apaf-1 (Zou et al., Cell 90:405 (1997)) and procaspase-9 (Li et al., Cell 91:479 (1997)). The third fraction, Q100, was eluted with 1 M NaCl. These three fractions were then used in different combinations to search for proteins that might mediate the PETCM effect.
The inhibitory activity was assayed by adding column fractions to the mixture of Q30/cytochrome c/PHAP/dATP.
Ten ml of HeLa S-100 (˜60 mg total protein) was loaded on a 1-ml HiTrap Q column (Pharmacia) pre-equilibrated with Buffer A (i.e., 20 mM Hepes-KOH, pH7.5, 10 mM KCl, 1.5 mM Mg Cl2, 1 mM sodium EDTA and 1 mM sodium EGTA, 1 mM dithiothreitol, and 0.1 mM PMSF). The flowthrough (Q-ft) was collected. After being washed with 10-ml of Buffer A, the column was eluted with 10-ml of Buffer A containing 300 mM NaCl, and the eluted protein peak ([…]) was collected (Q30). Subsequently, the column was eluted with Buffer A containing 1 M NaCl, and the protein peak (−3 ml) was collected and dialyzed for overnight (Q100).

In experiment [2] the test system is apoptosome (Apaf-1/caspase-9). Description: Apoptosome formation and caspase-9 activation in reconstituted system (Q30, cytochrome c, dATP). On the procedure: FIG. 5 illustrates regulation of apoptosome by ProT and PHAP. FIG. 5(A) illustrates that PHAP accelerates caspase-3 activation after PETCM antagonizes the inhibitory activity of ProT. FIG. 5(B) illustrates that ProT inhibits apoptosome formation, and PETCM can antagonize the inhibitory activity. FIG. 5(C) illustrates that PHAP enhances caspase-9 activation. Apoptosome formation was measured as described in FIG. 1.
Subsequently, regulation of apoptosome by these players was tested. […] PETCM promotes caspase-3 activation by removing the inhibition of ProT on apoptosome formation, allowing PHAPs to stimulate apoptosome activity.

Experiment [3] has as its system caspase-3. Description: Caspase-3 activation in HeLa cell lysate/S-100 (Ac-DEVD-pNA cleavage, HTS). On the procedure: Other means of measuring caspoase-3 activation are also encompassed herein and are readily known to those of ordinary skill in the art.
With respect to Example I, the high throughput screening (HTS) was essentially a cell-lysate assay in which the endpoint, activation of caspase-3, was monitored by the cleavage of a calorimetric substrate. HeLa cell lysate was prepared by Cellex Bioscience (Minneapolis, Minn.). This lysate was thawed and centrifuged before use (15K rpm in a JA20 Beckman rotor, Fullerton, Calif.). […] The plates were allowed to incubate for three to four hours. When 90% of the Ac-DEVD-pNA (Bachem L1945) was converted by the activated capsase-3 in the control plate, the screening plates were read again at 390 nm. The change in absorbency was scaled to the fully-activated control (cytochrome c) and the negative control (no compound).

Experiment [4] concerns Apaf-1 (apoptosome). Description: Apoptosome formation in HeLa cell S-100, gel-filtration chromatography and Western blot against Apaf-1. How it is done: In order to find out how this small molecule ([…]) promotes activation of caspase-3, apoptosome formation was analyzed using gel-filtration chromatography followed by Western blot analysis against Apaf-1 (Zou H et al., Cell 90:405-413, 1997). Other methods known to those of ordinary skill in the art may also be used for such an analysis.
On the technique in general: In western blotting, separated proteins are transferred to a membrane and probed.

In experiment [5] the test system is extracts from human tumor cells (caspase activation). Description: Response of extracts from a battery of human tumor cells to PETCM. To be noted: colon cancer, prostate cancer, promyelocytic leukemia, T cell leukemia, bone marrow leukemia, malignant melanoma, lymphoma, glioblastoma cells. How it is done: Extracts from a battery of human tumor cells were also screened for their response to PETCM. It was determined that many human cancer lines, including colon cancer, prostate cancer, promyelocytic leukemia, T cell leukemia, bone marrow leukemia, malignant melanoma, lymphoma, and glioblastoma cells were responsive. […] PETCM and the PETCM-stimulated caspase activation pathway are therefore of fundamental and clinical significance with respect to malignant mammalian cells. Thus, the present invention encompasses a method of stimulating caspase activity in malignant cells comprising exposing said cells to PETCM or administering PETCM to said cells.

Experiment [6] relates to caspase-3. Nature of the experiment: Caspase-3 activation in extracts from RNAi treated HeLa cells. To be noted: extracts from control RNAi treated-cells (FIG. 6D). The source says: (SEQ ID NO:7) and […] (SEQ ID NO:9) and […]

Regarding “PHAPI: recombinant His-tagged PHAPI, putative tumor suppressor protein that stimulates caspase activation”, the caspase-3 activation result in experiment [1] (Q30 fraction plus cytochrome c and 10 μM dATP (FIG. 5A, lane 2)) was “stimulated caspase-3 activation”. Also, in experiment [2] (presence of PHAPI), the apoptosome formation result was “did not affect the efficiency of apoptosome formation”. For the same molecule, the caspase-9 activation entry in experiment [2] (presence of PHAPI (FIG. 5C)) is given as “more activated caspase-9 was observed”.
In the case of `OC(Cc1ccncc1)C(Cl)(Cl)Cl` (stereo not drawn) [PETCM, alpha-(trichloromethyl)-4-Pyridineethanol], the “efficiency in activating caspase-3 compared with dATP” value in experiment [3] (0.2 mM PETCM vs 1.0 mM dATP) is recorded as “more efficient in activating caspase-3 than 1.0 mM dATP”. Also, in experiment [3] (FIG. 1(B), increasing amounts of PETCM), the “DEVD activity of HeLa S-100” value is given as “stimulates DEVD activity of HeLa S-100 in a dose-dependent manner”. The “efficiency of apoptosome formation compared with dATP” value in experiment [4] (0.2 mM PETCM vs 1 mM dATP) is recorded as “better than 1 mM dATP”. In addition, the “apoptosome formation (Apaf-1 shift)” value in experiment [4] (S-100 incubated with 0.2 mM PETCM) is “Apaf-1 was also shifted to the position of apoptosome”. In experiment [5], the “response of human cancer line extracts to PETCM” value was “responsive”. In addition, the “reversal of Q100 suppression of PHAP stimulatory activity” value in experiment [1] (PHAP with Q100 added back (FIG. 4A, lanes 5-6)) is given as “the suppression was reversed by the addition of PETCM”. In addition, the caspase-3 activation entry in experiment [1] (Q30, cytochrome c, 10 μM dATP, PHAPI, ProT, with PETCM (FIG. 5A, lane 4)) is listed as “the inhibitory effect of ProT was reversed”; in experiment [1] (Q-ft + Q30 + Q100, 0.2 mM PETCM with 10 μM dATP (lane 5)) it was “caspase-3 activation was observed at 10 μM dATP”; in experiment [1] (Q-ft + Q30 + Q100, PETCM, dATP completely omitted (lane 4)), “No caspase-3 activation was seen”. Further, in experiment [2] (FIG. 5B, ProT plus PETCM), the apoptosome formation result is “relieved the blockage”. Further, in experiment [6], the “caspase-3 activation in extracts, PETCM requirement” value was “responsive to PETCM”.
As to `Nc1ncnc2c1ncn2[C@H]1C[C@H](O)[C@@H](COP(=O)(O)OP(=O)(O)OP(=O)(O)O)O1` [dATP, 2′-deoxyadenosine-5′-triphosphate, reference compound], the “apoptosome formation (Apaf-1 shift)” value in experiment [4] (S-100 incubated with 1 mM dATP) is “most of the Apaf-1 was shifted to the size of ˜1 million Dalton”. In addition, the caspase-3 activation result is on record as “little caspase-3 activation was observed” in experiment [1] (Q-ft + Q30 + Q100, 10 μM dATP (lane 3)) and “robust caspase-3 activation” in experiment [1] (Q-ft + Q30 + Q100, 1 mM dATP (lane 2)).

These data come from US20050080102A1, “Compound and uses thereof” (priority 2002, published 2005).
